The values below come from patent publication US20170369470A1, “Cyclic Compounds and Uses Thereof” (Karyopharm Therapeutics Inc., priority 2014, published 2017).

Bounds are passed on as bounds.

For orientation: IC50 means the concentration at which inhibition is half-maximal.

What all share (type): cell-based
One assay deals with 3T3 cells. The assay can be described thus: MTT cell proliferation assay, 3T3 cells. The following applies: NIH3T3; 3T3 fibroblast cells (Swiss mouse embryo); incubation approximately 64-72 hours. The protocol: (§1) The MTT cell proliferation assay was used to study the cytotoxic properties of the compounds. The assay was performed according to the method described by Roche Molecular Biochemicals, with minor modifications. The assay is based on the cleavage of the tetrazolium salt, MTT, in the presence of an electron-coupling reagent. The water-insoluble formazan salt produced must be solubilized in an additional step. Cells grown in a 96-well tissue culture plate were incubated with the MTT solution for approximately 4 hours. After this incubation period, a water-insoluble formazan dye formed. After solubilization, the formazan dye was quantitated using a scanning multi-well spectrophotometer (ELISA reader). […] The cells were seeded at 5,000-10,000 cells in each well of 96-well plate in 100 μL of fresh culture medium and were allowed to attach overnight. The stock solutions of the compounds were diluted in 100 μL cell culture medium to obtain eight concentrations of each test compound, ranging from 1 nM to 30 μM. […] All optical densities were measured at 490 nm using a Vmax Kinetic Microplate Reader (Molecular Devices). In most cases, the assay was performed in duplicate and the results were presented as a mean percent inhibition to the negative control±SE. The following formula was used to calculate the percent of inhibition: Inhibition (%)=(1−(ODo/OD))×100.
(§2) The compounds were tested against MS751, Z138 and 3T3 cells. The MS751 cell line is derived from a metastasis to lymph node of human cervix from a patient diagnosed with squameous cell carcinoma of the cervix. The Z138 cell line is a mature B-cell acute lymphoblastic leukemia cell line derived from a patient with chronic lumphocytic leukemia. 3T3 cells are standard fibroblast cells; they were originally isolated from Swiss mouse embryo tissue.

The next assay deals with MS751 cells. The experiment in a line: MTT cell proliferation assay, MS751 cells. Conditions: MS751 cells (human cervix squamous cell carcinoma metastasis); incubation approximately 64-72 hours; read-out: MTT Assay IC50 MS 751. The protocol:
as §1, §2
Background: Formazan colour is commonly taken as a measure of viable cells.

The test system of a further assay is Z138 cells. The assay can be described thus: MTT cell proliferation assay, Z138 cells. The following applies: Homo sapiens, Z-138; Z138 cells (mantle cell lymphoma line); incubation approximately 64-72 hours. The protocol: as §1, §2

On to `Nc1ccc(/C=C/C(=O)NCc2cc3cc(-c4ccc(C(=O)N5CC6(COC6)C5)cc4)cc(C(F)(F)F)c3s2)cn1` [compound 519, (E)-N-((5-(4-(2-oxa-6-azaspiro[3.3]heptane-6-carbonyl)phenyl)-7-(trifluoromethyl)benzo[b]thiophen-2-yl)methyl)-3-(6-aminopyridin-3-yl)acrylamide], for which the half-maximal inhibitory concentration (IC50) was more than 10 µM with 3T3 cells, less than 1 µM in the assay on MS751 cells and less than 1 µM in the assay with Z138 cells.
`Nc1ccc(/C=C/C(=O)NCc2cc3cc(-c4ccc(C(=O)N5CCC(O)(C(F)(F)F)CC5)cc4)cc(C(F)(F)F)c3s2)cn1` [compound 521, (E)-3-(6-aminopyridin-3-yl)-N-((5-(4-(4-hydroxy-4-(trifluoromethyl)piperidine-1-carbonyl)phenyl)-7-(trifluoromethyl)benzo[b]thiophen-2-yl)methyl)acrylamide]: the IC50 with 3T3 cells is more than 10 µM; in the assay with MS751 cells, 1 to 5 µM; in the assay on Z138 cells, 1 to 5 µM.
Turning to `CC1(O)CCN(C(=O)c2ccc(-c3cc(C(F)(F)F)c4sc(CNC(=O)/C=C/c5ccc(N)nc5)cc4c3)cc2)CC1` [compound 528, (E)-3-(6-aminopyridin-3-yl)-N-((5-(4-(4-hydroxy-4-methylpiperidine-1-carbonyl)phenyl)-7-(trifluoromethyl)benzo[b]thiophen-2-yl)methyl)acrylamide], the IC50 is more than 10 µM in the assay on 3T3 cells, 1 to 5 µM in the assay on MS751 cells and less than 1 µM in the assay with Z138 cells.
For `Nc1ccc(/C=C/C(=O)NCc2cc3cc(-c4ccc(C(=O)N5CCC(F)(F)CC5)cn4)cc(C(F)(F)F)c3[nH]2)cn1` [compound 501, (E)-3-(6-aminopyridin-3-yl)-N-((5-(5-(4,4-difluoropiperidine-1-carbonyl)pyridin-2-yl)-7-(trifluoromethyl)-1H-indol-2-yl)methyl)acrylamide] the same measures were more than 10 µM, more than 10 µM and more than 10 µM.
For `Nc1ccc(/C=C/C(=O)NCc2cc3cc(-c4ccc(C(=O)N5CCC(O)(C(F)(F)F)CC5)cn4)cc(C(F)(F)F)c3s2)cn1` [compound 505, (E)-3-(6-aminopyridin-3-yl)-N-((5-(5-(4-hydroxy-4-(trifluoromethyl)piperidine-1-carbonyl)pyridin-2-yl)-7-(trifluoromethyl)benzo[b]thiophen-2-yl)methyl)acrylamide] the same measures were more than 10 µM, 1 to 5 µM and 1 to 5 µM.
As for `Nc1ccc(/C=C/C(=O)NCc2cc3cc(-c4ccc(C(=O)N5CC[C@H](F)C5)cc4)cc(C(F)(F)F)c3s2)cn1` [compound 525, (S,E)-3-(6-aminopyridin-3-yl)-N-((5-(4-(3-fluoropyrrolidine-1-carbonyl)phenyl)-7-(trifluoromethyl)benzo[b]thiophen-2-yl)methyl)acrylamide], the IC50 with 3T3 cells is more than 10 µM; in the assay with MS751 cells, 1 to 5 µM; in the assay on Z138 cells, 1 to 5 µM.
Regarding `Nc1ccc(/C=C/C(=O)NCc2cc3cc(-c4ccc(C(=O)N5CC6(C5)CC(F)(F)C6)cn4)cc(C(F)(F)F)c3s2)cn1` [compound 515, (E)-3-(6-aminopyridin-3-yl)-N-((5-(5-(6,6-difluoro-2-azaspiro[3.3]heptane-2-carbonyl)pyridin-2-yl)-7-(trifluoromethyl)benzo[b]thiophen-2-yl)methyl)acrylamide], the IC50 is more than 10 µM in the assay with 3T3 cells, less than 1 µM with MS751 cells and less than 1 µM in the assay on Z138 cells.
`Nc1ccc(/C=C/C(=O)NCc2cc3cc(-c4ccc(C(=O)N5CCC(F)(F)C5)cn4)cc(C(F)(F)F)c3s2)cn1` [compound 510, (E)-3-(6-aminopyridin-3-yl)-N-((5-(5-(3,3-difluoropyrrolidine-1-carbonyl)pyridin-2-yl)-7-(trifluoromethyl)benzo[b]thiophen-2-yl)methyl)acrylamide]: the IC50 is more than 10 µM in the assay with 3T3 cells, 1 to 5 µM in the assay with MS751 cells and 1 to 5 µM with Z138 cells.
For the molecule `Nc1ccc(/C=C/C(=O)NCc2cc3cc(-c4ccc(C(=O)N5CCC(F)(F)CC5)cc4)cc(C(F)(F)F)c3s2)cn1` [compound 518, (E)-3-(6-aminopyridin-3-yl)-N-((5-(4-(4,4-difluoropiperidine-1-carbonyl)phenyl)-7-(trifluoromethyl)benzo[b]thiophen-2-yl)methyl)acrylamide], the values for the half-maximal inhibitory concentration (IC50) with 3T3 cells, in the assay with MS751 cells and in the assay on Z138 cells were more than 10 µM, 1 to 5 µM and 1 to 5 µM, respectively.
Consider `CC1(C)COCCN1C(=O)c1ccc(-c2cc(C(F)(F)F)c3sc(CNC(=O)/C=C/c4ccc(N)nc4)cc3c2)cc1` [compound 523, (E)-3-(6-aminopyridin-3-yl)-N-((5-(4-(3,3-dimethylmorpholine-4-carbonyl)phenyl)-7-(trifluoromethyl)benzo[b]thiophen-2-yl)methyl)acrylamide], for which the results for the IC50 in the assay on 3T3 cells, in the assay with MS751 cells and with Z138 cells were more than 10 µM, 1 to 5 µM and 1 to 5 µM, respectively.
With `Nc1ccc(/C=C/C(=O)NCc2cc3cc(-c4ccc(C(=O)N5CCC(F)(F)CC5)cn4)cc(C(F)(F)F)c3s2)cn1` [compound 503, (E)-3-(6-aminopyridin-3-yl)-N-((5-(5-(4,4-difluoropiperidine-1-carbonyl)pyridin-2-yl)-7-(trifluoromethyl)benzo[b]thiophen-2-yl)methyl)acrylamide], the IC50 in the assay on 3T3 cells was more than 10 µM; in the assay on MS751 cells, 1 to 5 µM; in the assay on Z138 cells it was 1 to 5 µM.
Turning to `Nc1ccc(/C=C/C(=O)NCc2nc3cc(-c4ccc(C(=O)N5CCC(F)(F)CC5)cc4)cc(-c4ccc(F)cc4)c3s2)cn1` [compound 535, (E)-3-(6-aminopyridin-3-yl)-N-((5-(4-(4,4-difluoropiperidine-1-carbonyl)phenyl)-7-(4-fluorophenyl)benzo[d]thiazol-2-yl)methyl)acrylamide], the IC50 in the assay with 3T3 cells is more than 10 µM; with MS751 cells, 1 to 5 µM; in the assay with Z138 cells, 1 to 5 µM.
`Nc1ccc(/C=C/C(=O)NCc2cc3cc(-c4ccc(C(=O)N5CCOCC5)cc4)cc(Cl)c3s2)cn1` [compound 500, (E)-3-(6-aminopyridin-3-yl)-N-((7-chloro-5-(4-(morpholine-4-carbonyl)phenyl)benzo[b]thiophen-2-yl)methyl)acrylamide]: the half-inhibitory concentration (IC50) was more than 10 µM in the assay on 3T3 cells, less than 1 µM in the assay on MS751 cells and less than 1 µM with Z138 cells.
On to `Nc1ccc(/C=C/C(=O)NCc2cc3cc(-c4ccc(C(=O)N5CCOCC5)cn4)cc(C(F)(F)F)c3s2)cn1` [compound 506, (E)-3-(6-aminopyridin-3-yl)-N-((5-(5-(morpholine-4-carbonyl)pyridin-2-yl)-7-(trifluoromethyl)benzo[b]thiophen-2-yl)methyl)acrylamide], for which the IC50 in the assay with 3T3 cells was more than 10 µM; in the assay with MS751 cells it was 1 to 5 µM; with Z138 cells, 1 to 5 µM.
In the case of `CC1(F)CCN(C(=O)c2ccc(-c3cc(C(F)(F)F)c4sc(CNC(=O)/C=C/c5ccc(N)nc5)cc4c3)nc2)C1` (stereo not drawn) [compound 507, (E)-3-(6-aminopyridin-3-yl)-N-((5-(5-(3-fluoro-3-methylpyrrolidine-1-carbonyl)pyridin-2-yl)-7-(trifluoromethyl)benzo[b]thiophen-2-yl)methyl)acrylamide], the IC50 with 3T3 cells is more than 10 µM; with MS751 cells it was 1 to 5 µM; with Z138 cells it was 1 to 5 µM.
On to `Cn1c(CNC(=O)/C=C/c2ccc(N)nc2)nc2c(C(F)(F)F)cc(-c3ccc(C(=O)N4CCC(F)(F)CC4)cn3)cc21` [compound 531, (E)-3-(6-aminopyridin-3-yl)-N-((6-(5-(4,4-difluoropiperidine-1-carbonyl)pyridin-2-yl)-1-methyl-4-(trifluoromethyl)-1H-benzo[d]imidazol-2-yl)methyl)acrylamide], for which the 50% inhibitory concentration (IC50) in the assay on 3T3 cells, with MS751 cells and in the assay with Z138 cells was more than 10 µM in each case.
`CC1(C)CN(C(=O)c2ccc(-c3cc(C(F)(F)F)c4sc(CNC(=O)/C=C/c5ccc(N)nc5)cc4c3)nc2)CCO1` [compound 514, (E)-3-(6-aminopyridin-3-yl)-N-((5-(5-(2,2-dimethylmorpholine-4-carbonyl)pyridin-2-yl)-7-(trifluoromethyl)benzo[b]thiophen-2-yl)methyl)acrylamide]: the 50% inhibitory concentration (IC50) with 3T3 cells is more than 10 µM; in the assay on MS751 cells it was 1 to 5 µM; in the assay with Z138 cells it was less than 1 µM.
Regarding `Nc1ccc(/C=C/C(=O)NCc2cc3cc(-c4ccc(C(=O)N5CC[C@H](F)C5)cn4)cc(C(F)(F)F)c3s2)cn1` [compound 513, (S,E)-3-(6-aminopyridin-3-yl)-N-((5-(5-(3-fluoropyrrolidine-1-carbonyl)pyridin-2-yl)-7-(trifluoromethyl)benzo[b]thiophen-2-yl)methyl)acrylamide], the half-maximal inhibitory concentration (IC50) with 3T3 cells lay within 5 to 10 µM; in the assay with MS751 cells, 1 to 5 µM; in the assay with Z138 cells, 1 to 5 µM.
